# According to article PMC11390765 (Cancer Chemotherapy and Pharmacology, 2024):
# What was measured:
# advanced solid tumors = test: Exploratory efficacy (RECIST 1.1, investigator assessment); format: in vivo, human; conditions: capivasertib 400 mg BID 4 days on/3 days off
# Experimental: Efficacy was evaluated as an exploratory endpoint by investigator assessment, and per Response Evaluation Criteria in Solid Tumors (RECIST) version 1.1. Tumor assessments were performed by CT and/or MRI scans at screening and then every 8 weeks (± 7 days; earlier if clinically indicated) for 2 years, and then every 12 weeks until disease progression. Radiographic bone scans were performed at screening and repeated as clinically indicated, depending on tumor type.
# Safety analyses were performed on the full analysis set, which consisted of all patients who received at least one dose of midazolam and/or capivasertib, irrespective of protocol adherence or continued participation in the study. Efficacy analyses were also performed on the full analysis set. Summary and/or descriptive statistics were used to analyze baseline demographic, safety, and efficacy data; PFS and DoR were estimated using Kaplan–Meier methodology.
# [1] = test system: all three isoforms of AKT; set-up: method as in PMID 22294718; conditions: cited from earlier work
structure (smiles),measurement,setting,value
NC1(C(=O)N[C@@H](CCO)c2ccc(Cl)cc2)CCN(c2nc[nH]c3nccc2-3)CC1 [capivasertib],Median DoR (95% CI),advanced solid tumors,3.8 months
same,patients with confirmed partial response to treatment,advanced solid tumors,Two
same,CBR (95% CI) at 24 weeks,advanced solid tumors; full analysis set,14.3%
same,ORR (95% CI),advanced solid tumors; full analysis set,9.5%
same,median PFS (95% CI),"advanced solid tumors; full analysis set, 15 PFS events",3.4 months
same,inhibition of AKT isoforms,[1],"potent, selective inhibitor"
